± gives the expanded uncertainty stated by the source.
How the values were obtained:
[1] = Molar enthalpy of transition or fusion; settings: Crystal; DSC
[2] = Crystal; DTA

Structure (SMILES) | Molar enthalpy of transition or fusion [1] [kcal/mol] | Normal melting temperature [2] [°C]
CCn1c2c(c3c1CCCC3)CCCC2 [9-ethyl-2,3,4,5,6,7,8,9-octahydro-1H-carbazole] | 4.92 ± 0.139 | 43 ± 2
c1ccc2c(c1)[nH]c1ccccc12 [9H-carbazole] | 6.62 ± 0.201 | 244.0 ± 2
c1ccc2c3c([nH]c2c1)CCCC3 [2,3,4,9-tetrahydro-1H-carbazole] | 4.27 ± 0.1 | 118.2 ± 2
CCn1c2c(c3ccccc31)CCCC2 [9-ethyl-2,3,4,9-tetrahydrocarbazole] | 2.97 ± 0.0765 | 9.2 ± 2

Second part, the compound after the results:

Molar enthalpy of transition or fusion [1] [kcal/mol] | Normal melting temperature [2] [°C] | Structure (SMILES)
3.96 ± 0.12 | 69.2 ± 2 | CCn1c2ccccc2c2ccccc21 [9-ethylcarbazole]
4.68 ± 0.117 | 47.2 ± 2 | CCCn1c2ccccc2c2ccccc21 [N-propyl-9H-carbazole]
4.36 ± 0.184 | 120.8 ± 2 | CC(C)n1c2ccccc2c2ccccc21 [9-(1-methylethyl)carbazole]
5.45 ± 0.136 | 57.5 ± 2 | CCCCn1c2ccccc2c2ccccc21 [N-butyl-9H-carbazole]
3.93 ± 0.136 | 88 ± 2 | Cn1c2ccccc2c2ccccc21 [9-methyl-9H-carbazole]

Reference: the NIST ThermoML archive (doi:10.1021/acs.jced.5b00679)
